# Source: ChEMBL document CHEMBL4480449, “Conolodinines A-D, Aspidosperma- Aspidosperma Bisindole Alkaloids with Antiproliferative Activity from Tabernaemontana corymbosa” (J Nat Prod, 2019)
# What was measured:
# LNCaP = experiment: Cytotoxicity against human LNCAP cells after 72 hrs by MTT assay; assay type: functional, cell-based
# MRC5 = experiment: Cytotoxicity against human MRC5 cells after 72 hrs by MTT assay; assay type: cell-based
# MCF7 = experiment: Cytotoxicity against human MCF7 cells after 72 hrs by MTT assay; assay type: functional, cell-based
# KB/VJ300 [1] = experiment: Cytotoxicity against human KB/VJ300 cells after 72 hrs by MTT assay; assay type: functional, cell-based
# [2] = Cytotoxicity against human KB/S cells after 72 hrs by MTT assay; assay type: functional, cell-based
# KB/VJ300 [3] = experiment: Cytotoxicity against human KB/VJ300 cells after 72 hrs in presence of vincristine by MTT assay; assay type: functional, cell-based; also: test concentration or dose not given here
# MDA-MB-231 = experiment: Cytotoxicity against human MDA-MB-231 cells after 72 hrs by MTT assay; assay type: functional, cell-based
# PC-3 = experiment: Cytotoxicity against human PC3 cells after 72 hrs by MTT assay; assay type: functional, cell-based
# HT-29 = experiment: Cytotoxicity against human HT-29 cells after 72 hrs by MTT assay; assay type: functional, cell-based
# A549 = experiment: Cytotoxicity against human A549 cells after 72 hrs by MTT assay; assay type: functional, cell-based; conditions: A549, 72 h
# HCT-116 = experiment: Cytotoxicity against human HCT116 cells after 72 hrs by MTT assay; assay type: functional, cell-based; conditions: HCT-116, 72 h
Structure (SMILES),"IC50 (LNCaP; Homo sapiens, LNCaP, 72 h) [nM]",IC50 (MRC5; mrc5) [nM],"IC50 (MCF7; Homo sapiens, MCF7, 72 h) [nM]","IC50 (KB/VJ300 [1]; Homo sapiens, KB/VJ300, 72 h) [nM]",IC50 [2] [nM],"IC50 (KB/VJ300 [3]; Homo sapiens, KB/VJ300, 72 h) [nM]","IC50 (MDA-MB-231; Homo sapiens, MDA-MB-231, 72 h) [nM]","IC50 (PC-3; Homo sapiens, PC-3, 72 h) [nM]","IC50 (HT-29; Homo sapiens, HT-29, 72 h) [nM]",IC50 (A549) [nM],IC50 (HCT-116) [nM],"IC50 ([2]; Homo sapiens, 72 h) [nM]","IC50 (MRC5; Homo sapiens, MRC5, 72 h) [nM]",IC50 (LNCaP; lncap) [nM],IC50 (MCF7; mcf7) [nM],IC50 (KB/VJ300 [1]; kb/vj300) [nM],IC50 (KB/VJ300 [3]; kb/vj300) [nM],IC50 (MDA-MB-231; mda-mb-231) [nM],IC50 (PC-3; pc-3) [nM],IC50 (HT-29; ht-29) [nM]
CC[C@@]12CC(C(=O)OC)=C3N=C4C(=CC(=O)C(O)=C4OC)[C@@]34CCN([C@@H]3c5cc6c(cc5O[C@@H]3[C@H]1O)NC1=C(C(=O)OC)C[C@]3(CC)[C@@H]5O[C@@H]5CN5CC[C@@]16[C@@H]53)[C@H]42 (stereo in doubt; 7),1600,1500,800,4200,30,3000,1300,600,800,> 10000,500,–,–,–,–,–,–,–,–,–
CC[C@@]12CC(C(=O)OC)=C3N=C4C(=CC(=O)C(OC)=C4OC)[C@@]34CCN([C@@H]3c5cc6c(cc5O[C@@H]3[C@H]1O)NC1=C(C(=O)OC)C[C@]3(CC)[C@@H]5O[C@@H]5CN5CC[C@@]16[C@@H]53)[C@H]42,> 10000,–,300,8600,–,1500,400,700,200,> 10000,200,100,–,–,–,–,–,–,–,–
CC[C@@]12C=C(C(=O)OC)C3=Nc4c(cc(O)c(OC)c4OC)[C@@]34CCN([C@@H]3c5cc6c(cc5O[C@@H]3[C@H]1O)NC1=C(C(=O)OC)C[C@]3(CC)[C@@H]5O[C@@H]5CN5CC[C@@]16[C@@H]53)[C@@H]24,> 10000,–,4800,> 10000,–,4100,3600,4700,2200,> 10000,4300,1100,–,–,–,–,–,–,–,–
CC[C@@]12CC(C(=O)OC)=C3N=C4C(=CC(=O)C(OC)=C4OC)[C@@]34CCN([C@H](c3ccc5c(c3)[C@@]36CCN7C[C@H]8O[C@H]8[C@@](CC)(CC[C@@H]3N5C)[C@H]76)[C@H]3O[C@H]31)[C@H]42,3300,–,8400,2700,–,4400,6000,4300,3400,> 10000,2400,1100,> 10000,–,–,–,–,–,–,–
CC[C@@]12CC(C(=O)OC)=C3Nc4cc5c(cc4[C@@]34CCN(C[C@H]3O[C@H]31)[C@@H]24)[C@@H]1[C@H](O5)[C@@H](O)[C@@]2(CC)CC(C(=O)OC)=C3Nc4c(ccc(OC)c4O)[C@@]34CCN1[C@@H]24,9600,–,600,> 10000,–,1300,1400,7900,300,> 10000,1100,100,–,–,–,–,–,–,–,–
CC[C@@]12CC(C(=O)OC)=C3Nc4cc5c(cc4[C@@]34CCN(C[C@H]3O[C@H]31)[C@@H]24)[C@@H]1[C@H](O5)[C@@H](O)[C@@]2(CC)CC(C(=O)OC)=C3Nc4c(cc(O)c(OC)c4OC)[C@@]34CCN1[C@@H]24 [CONOPHYLLINE],> 10000,–,2100,> 10000,–,4900,1600,300,3000,3200,800,30,–,–,–,–,–,–,–,–
COc1ccc(CCN(C)CCCC(C#N)(c2ccc(OC)c(OC)c2)C(C)C)cc1OC (stereo unspecified) [VERAPAMIL],–,–,–,–,–,800,–,–,–,–,–,–,–,–,–,–,–,–,–,–
CC[C@@]12CC(C(=O)OC)=C3Nc4cc5c(cc4[C@@]34CCN(C[C@H](O)[C@H]1O)[C@@H]24)[C@@H]1[C@H](O5)[C@@H](O)[C@@]2(CC)CC(C(=O)OC)=C3Nc4c(cc(O)c(OC)c4OC)[C@@]34CCN1[C@@H]24,300,–,1200,> 10000,–,> 10000,> 10000,2500,1700,> 10000,2100,700,–,–,–,–,–,–,–,–
CC[C@@]12CC(C(=O)OC)=C3N=C4C(=CC(=O)C(OC)=C4OC)[C@@]34CCN([C@@H]3c5cc6c(cc5O[C@@H]3[C@H]1O)NC1=C(C(=O)OC)C[C@]3(CC)[C@H](O)[C@@H](O)CN5CC[C@@]16[C@@H]53)[C@H]42,2600,–,3500,> 10000,–,> 10000,5400,> 10000,2300,> 10000,3100,200,> 10000,–,–,–,–,–,–,–
CC[C@]1(O)C[C@H]2CN(CCc3c([nH]c4ccccc34)[C@@](C(=O)OC)(c3cc4c(cc3OC)N(C=O)[C@H]3[C@@](O)(C(=O)OC)[C@H](OC(C)=O)[C@]5(CC)C=CCN6CC[C@]43[C@@H]65)C2)C1 [VINCRISTINE],–,–,–,2600,–,–,–,–,–,–,–,0.4,–,–,–,–,–,–,–,–
CC[C@]12C=CCN3CC[C@]4(C(=C(C(=O)OC)C1)Nc1cc5c(cc14)[C@@H]1[C@H](O5)[C@@H](O)[C@@]4(CC)CC(C(=O)OC)=C5Nc6c(cc(O)c(OC)c6OC)[C@@]56CCN1[C@@H]46)[C@@H]32,–,–,–,> 10000,–,–,–,–,–,–,–,1500,–,–,–,–,–,–,–,–
CC[C@]12C=CCN3CC[C@]4(C(=C(C(=O)OC)C1)Nc1cc5c(cc14)[C@@H]1[C@H](O5)[C@@H](O)[C@@]4(CC)CC(C(=O)OC)=C5N=C6C(=CC(=O)C(OC)=C6OC)[C@@]56CCN1[C@H]64)[C@@H]32,2800,–,800,4600,–,4300,500,300,400,> 10000,100,30,5600,–,–,–,–,–,–,–
CC[C@@]12CC(C(=O)OC)=C3Nc4c(cc(O)c(OC)c4OC)[C@@]34CCN([C@@H]3c5cc6c(cc5O[C@@H]3[C@H]1O)NC1=C(C(=O)OC)C[C@]35CCO[C@H]3CCN3CC[C@@]16[C@@H]35)[C@@H]24,–,–,–,–,–,1400,–,–,–,> 10000,–,500,6200,–,–,–,–,–,–,–
CC[C@@]12CC[C@@H]3N(C)c4ccc([C@@H]5[C@H]6O[C@H]6[C@@]6(CC)CC(C(=O)OC)=C7Nc8c(cc(O)c(OC)c8OC)[C@@]78CCN5[C@@H]68)cc4[C@@]34CCN(C[C@H]3O[C@H]31)[C@@H]24 [CONOFOLINE],> 10000,–,> 10000,> 10000,–,–,9900,2300,8500,8200,6600,> 10000,–,–,–,–,–,–,–,–
CC[C@@]12CC(C(=O)OC)=C3N=C4C(=CC(=O)C(O)=C4OC)[C@@]34CCN([C@@H]3c5cc6c(cc5O[C@@H]3[C@H]1O)NC1=C(C(=O)OC)C[C@]3(CC)[C@@H]5O[C@@H]5CN5CC[C@@]16[C@@H]53)[C@H]42 (stereo in doubt; 8),–,4000,–,–,10,–,–,–,–,–,–,–,–,1000,700,2900,4200,800,500,1000
